Experimental data from patent publication US20250275959A1, “COMPOUNDS AND METHODS OF THEIR USE” (LEXICON PHARMACEUTICALS, INC., priority 2024, published 2025).
“Also recorded” adds a separate entry of the source.

Assays:
hACSL5 [1] = target: T1, hACSL5 (Homo sapiens (Human), UniProt Q9ULC5); assay: Human ACSL5 coupled enzyme Amplex Red assay; format: biochemical; conditions: read-out: hACSL5 IC50
Method in brief: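 C-terminally His-tagged ACSL5 (33-683) from sf9 cells, 20 nM, was preincubated with compound in MOPS-NaOH pH 7.6 with MgCl2, peroxidase and acyl-CoA oxidase. Reactions were started with 25 μM oleate, 30 μM CoA, 1 mM ATP and 50 μM Amplex Red; fluorescence (535/590 nm) after 10 minutes at 25° C. was fitted to the Hill equation for IC50 and maximal inhibition.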
Target sequence in this assay (Q9ULC5 33-683): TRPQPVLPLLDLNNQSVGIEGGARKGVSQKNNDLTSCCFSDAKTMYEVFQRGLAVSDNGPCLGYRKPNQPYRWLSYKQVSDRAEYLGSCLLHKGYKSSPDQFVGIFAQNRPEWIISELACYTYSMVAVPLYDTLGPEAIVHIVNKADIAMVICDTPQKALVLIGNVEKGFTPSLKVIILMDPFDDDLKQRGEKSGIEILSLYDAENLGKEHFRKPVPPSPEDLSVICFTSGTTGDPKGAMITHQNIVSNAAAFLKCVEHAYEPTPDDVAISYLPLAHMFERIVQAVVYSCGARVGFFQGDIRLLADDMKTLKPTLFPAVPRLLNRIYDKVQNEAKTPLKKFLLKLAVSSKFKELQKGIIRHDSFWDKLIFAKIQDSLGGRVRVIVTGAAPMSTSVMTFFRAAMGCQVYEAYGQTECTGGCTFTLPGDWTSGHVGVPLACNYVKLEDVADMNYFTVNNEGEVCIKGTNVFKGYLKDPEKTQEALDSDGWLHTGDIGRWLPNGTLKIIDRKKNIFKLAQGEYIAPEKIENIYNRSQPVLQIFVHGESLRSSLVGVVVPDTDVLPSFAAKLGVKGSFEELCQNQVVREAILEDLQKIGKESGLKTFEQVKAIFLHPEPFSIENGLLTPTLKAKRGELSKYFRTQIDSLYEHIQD

hACSL5 [2] = target: T1, hACSL5; assay: Cell-based assay (CBA) with B12FA in hACSL5-transfected Expi293F / FlpIn TRex293 cells; conditions: hACSL5-expressing cells
Method in brief: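 hACSL5-expressing Expi293F or tetracycline-induced FlpIn TRex293 cells, serum- and glucose-starved 1 h, then treated 3 h with serially diluted compound plus 20 µM B12FA. After fixation, 630/520 nm emission ratio (ex 485 nm) gave % inhibition versus no-inhibitor and 10 µM compound/non-induced controls; IC50 by Hill fit.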
Target sequence in this assay (Q9ULC5 whole entry): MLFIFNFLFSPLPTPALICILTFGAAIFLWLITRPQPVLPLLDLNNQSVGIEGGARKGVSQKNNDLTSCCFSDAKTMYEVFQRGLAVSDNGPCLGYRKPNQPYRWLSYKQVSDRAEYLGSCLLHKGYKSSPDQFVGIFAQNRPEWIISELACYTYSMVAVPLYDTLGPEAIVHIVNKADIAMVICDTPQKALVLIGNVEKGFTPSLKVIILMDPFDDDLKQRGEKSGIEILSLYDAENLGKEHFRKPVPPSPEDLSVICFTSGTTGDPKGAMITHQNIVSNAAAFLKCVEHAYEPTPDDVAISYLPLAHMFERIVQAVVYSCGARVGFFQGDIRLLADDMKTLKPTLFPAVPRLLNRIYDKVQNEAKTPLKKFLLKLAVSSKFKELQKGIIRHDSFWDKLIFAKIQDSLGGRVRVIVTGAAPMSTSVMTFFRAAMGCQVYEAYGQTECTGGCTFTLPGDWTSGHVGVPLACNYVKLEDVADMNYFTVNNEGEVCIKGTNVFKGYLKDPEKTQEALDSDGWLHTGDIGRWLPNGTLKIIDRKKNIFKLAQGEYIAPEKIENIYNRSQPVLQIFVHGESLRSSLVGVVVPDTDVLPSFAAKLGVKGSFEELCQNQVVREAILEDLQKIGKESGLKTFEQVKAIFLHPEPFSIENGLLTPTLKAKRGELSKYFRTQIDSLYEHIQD

[3] = Murine diet-induced obesity (DIO) model, Compound A study; format: in vivo, C57BL/6J mice; conditions: DIO mice
Experimental: The effects of four representative compounds of the invention were tested in a mouse model of diet-induced obesity (DIO): • Compound A is (R)—N-(tert-butylsulfonyl)-4-(1-(5-(pyridin-3-yloxy)pyridin-2-yl)ethoxy)-3-(trifluoromethyl)benzamide; • Compound B is (R)-4-(1-(5-(cyclopropylmethoxy)pyridin-2-yl)propoxy)-N-((4-(2-(dimethylamino)ethoxy)phenyl)sulfonyl)-2,3-difluorobenzamide; • Compound C is (R)—N-((4-(2-(dimethylamino)ethoxy)piperidin-1l-yl)sulfonyl)-2,3-difluoro-4-(1-(5-(pyridin-2-yloxy)pyridin-2-yl)propoxy)benzamide; and • Compound D is (R)-2,3-difluoro-N-((4-methylpiperazin-1-yl)sulfonyl)-4-(1-(5-(pyridin-2-yloxy)pyridin-2-yl)propoxy)benzamide.
The mice used in these experiments were C57BL/6J mice fed a high-fat diet (D12492 from Research Diets) ad libitum during the study period. The vehicle and test article formulations were 10% w/v Solutol in water.
After a seven-day acclimation period, the DIO model was induced by putting the mice on a high fat diet for ten weeks. After the ten weeks, the DIO mice were equally divided into groups based on body weight, ten mice in each group: the control group (Vehicle) and Compound A at 30 mg/kg.
The animals were pre-dosed for two days prior to formal dosing (once-per-day treatment for every group). From Day 1 to Day 13, the animals in the dosing group were administered orally by gavage at 5:00 p.m. every day as well as weight and food intake were recorded daily. All animals were fasted overnight after dosing on Day 1, Day 4, Day 12 and Day 13, then the blood (retro-orbital bleed) of mice from each group was collected at 7:00 a.m. to separate out the serum on Day 2, Day 5 and Day 13 for measuring total cholesterol levels (TC), triglyceride (TG), aminotransferase alanine (ALT), aspartate aminotransferase (AST) and total bilirubin (TBil) levels. All animals were performed OGTT test (0 min, 30 min, 60 min and 120 min) and measured insulin levels (0 min and 30 min) on Day 14.
• 1. Body weight and Food Consumption: Pre-dose every day starting from Day −1 onwards. • 2. Day −1 and Day 0: Handle mice and gavage with vehicle. • 3. Day 1: Dose˜5:00 PM. Fast overnight. • 4. Day 2: Determine total cholesterol levels and triglyceride, ALT, AST, Total Bilirubin levels 7:00 AM. Resume feeding. • 5. Day 2-3: Dose˜5:00 PM. • 6. Day 4: Dose˜5:00 PM. Fast overnight. • 7. Day 5: Determine total cholesterol levels and triglyceride, ALT, AST, Total Bilirubin levels˜7:00 AM. Resume feeding. • 8. Day 5˜11: Dose˜5:00 PM. • 9. Day 12: Dose˜5:00 PM. Fast overnight. • 10. Day 13: Determine total cholesterol levels and triglyceride, ALT, AST, Total Bilirubin levels 7:00 AM. Resume feeding. • 11. Day 13: Dose˜5:00 PM. Fast overnight. • 12. Day 14: (No drug administration) Oral glucose tolerance test with glucose levels measured at Pre-dose, 30 min, 60 min and 120 min. And insulin levels at Time 0 min, 30 min after the glucose challenge.
Data was provided as mean±SD. Statistical significance was considered when the P value is less than 0.05. Results were analyzed by SPSS software. […]. T-test was used to calculate P value. […]

CC[C@@H](Oc1ccc(C(=O)NS(=O)(=O)N2CCN(CC)CC2)cc1C(F)(F)F)c1ccc(Oc2ccccn2)cn1 [(R)-N-((4-ethylpiperazin-1-yl)sulfonyl)-4-(1-(5-(pyridin-2-yloxy)pyridin-2-yl)propoxy)-3-(trifluoromethyl)benzamide]
IC50 (hACSL5 [1]): < 100 nM | IC50 (hACSL5 [2]): < 100 nM

CC[C@@H](Oc1ccc(C(=O)NS(=O)(=O)N2CCN(C)CC2)cc1C(F)(F)F)c1ccc(Oc2ccccn2)cn1 [(R)-N-((4-methylpiperazin-1-yl)sulfonyl)-4-(1-(5-(pyridin-2-yloxy)pyridin-2-yl)propoxy)-3-(trifluoromethyl)benzamide]
IC50 (hACSL5 [1]): < 100 nM | IC50 (hACSL5 [2]): < 100 nM

C[C@@H](Oc1ccc(C(=O)NS(=O)(=O)C(C)(C)C)cc1C(F)(F)F)c1ccc(Oc2cccnc2)cn1 [Compound A, (R)—N-(tert-butylsulfonyl)-4-(1-(5-(pyridin-3-yloxy)pyridin-2-yl)ethoxy)-3-(trifluoromethyl)benzamide]
Body Weight (g)/Day ([3]; 30 mg/kg oral daily, Day 1): 37.9 ± 1.4 g | Body Weight (g)/Day ([3]; 30 mg/kg oral daily, Day 2): 36.6 ± 1.4 g | Body Weight (g)/Day ([3]; 30 mg/kg oral daily, Day 3): 35.8 ± 1.5 g | Body Weight (g)/Day ([3]; 30 mg/kg oral daily, Day 4): 35.3 ± 1.4 g | Body Weight (g)/Day ([3]; 30 mg/kg oral daily, Day 5): 34.3 ± 1.3 g | Body Weight (g)/Day ([3]; 30 mg/kg oral daily, Day 6): 34.2 ± 1.2 g | Body Weight (g)/Day ([3]; 30 mg/kg oral daily, Day 7): 34.0 ± 1.3 g | Body Weight (g)/Day ([3]; 30 mg/kg oral daily, Day 8): 33.9 ± 1.4 g | Body Weight (g)/Day ([3]; 30 mg/kg oral daily, Day 9): 33.5 ± 1.4 g | Body Weight (g)/Day ([3]; 30 mg/kg oral daily, Day 10): 33.4 ± 1.3 g | Body Weight (g)/Day ([3]; 30 mg/kg oral daily, Day 11): 32.9 ± 1.4 g | Body Weight (g)/Day ([3]; 30 mg/kg oral daily, Day 12): 32.8 ± 1.3 g | mean body weight versus control group ([3]; 30 mg/kg oral daily, Day −1 to Day 12): significantly lower than that of the control group from Day 8 onwards; also recorded: statistically significant effect on the mice's body weights versus control | Body Weight (g)/Day ([3]; 30 mg/kg, Day 0 (pre-dose)): 38.3 ± 1.4 g | Body Weight (g)/Day ([3]; 30 mg/kg, Day −1 (pre-dose)): 38.5 ± 1.6 g

CCOc1ccc(C(C)Oc2ccc(C(=O)NS(=O)(=O)c3ccc(OCCn4ccnc4)cc3)c(F)c2F)nc1 (stereo not shown) [N-((4-(2-(1H-imidazol-1-yl)ethoxy)phenyl)sulfonyl)-4-(1-(5-ethoxypyridin-2-yl)ethoxy)-2,3-difluorobenzamide]
IC50 (hACSL5 [1]): 100 to 500 nM | IC50 (hACSL5 [2]): > 500 nM

CC[C@@H](Oc1ccc(C(=O)NS(=O)(=O)c2ccc(OCCN(C)C)cc2)c(F)c1F)c1ccc(OC2CC(OC)C2)cn1 (stereo partly drawn) [N-((4-(2-(dimethylamino)ethoxy)phenyl)sulfonyl)-2,3-difluoro-4-((R)-1-(5-((1R,3R)-3-methoxycyclobutoxy)pyridin-2-yl)propoxy)benzamide]
IC50 (hACSL5 [1]): < 100 nM | IC50 (hACSL5 [2]): 100 to 500 nM

CC[C@@H](Oc1ccc(C(=O)NS(=O)(=O)c2ccc(OCCN(C)C)cc2)cc1C(F)(F)F)c1ccc(OC2CC(OC)C2)cn1 (stereo partly drawn) [N-((4-(2-(dimethylamino)ethoxy)phenyl)sulfonyl)-4-((R)-1-(5-((1R,3R)-3-methoxycyclobutoxy)pyridin-2-yl)propoxy)-3-(trifluoromethyl)benzamide]
IC50 (hACSL5 [1]): 100 to 500 nM | IC50 (hACSL5 [2]): 100 to 500 nM

CC[C@@H](Oc1ccc(C(=O)NS(=O)(=O)c2ccc(O[C@@H]3C[C@H]4C[C@@H]3CN4)cc2)c(F)c1F)c1ccc(OCC2CC2)cn1 [N-((4-(((1R,4R,5R)-2-azabicyclo[2.2.1]heptan-5-yl)oxy)phenyl)sulfonyl)-4-((R)-1-(5-(cyclopropylmethoxy)pyridin-2-yl)propoxy)-2,3-difluorobenzamide]
IC50 (hACSL5 [1]): < 100 nM | IC50 (hACSL5 [2]): > 500 nM

CC[C@@H](Oc1ccc(C(=O)NS(=O)(=O)N2CCN(C3CC3)CC2)c(F)c1F)c1ccc(OC2CC(OC)C2)cn1 (stereo partly drawn) [N-((4-cyclopropylpiperazin-1-yl)sulfonyl)-2,3-difluoro-4-((R)-1-(5-((1R,3R)-3-methoxycyclobutoxy)pyridin-2-yl)propoxy)benzamide]
IC50 (hACSL5 [1]): < 100 nM | IC50 (hACSL5 [2]): 100 to 500 nM

CC[C@@H](Oc1ccc(C(=O)NS(=O)(=O)N2CCN(C)[C@@H](C)C2)c(F)c1F)c1ccc(Oc2ccccn2)cn1 [N-(((S)-3,4-dimethylpiperazin-1-yl)sulfonyl)-2,3-difluoro-4-((R)-1-(5-(pyridin-2-yloxy)pyridin-2-yl)propoxy)benzamide]
IC50 (hACSL5 [1]): < 100 nM | IC50 (hACSL5 [2]): < 100 nM
